Assay results published in paper PMC3687796 (Clinical cancer research : an official journal of the …, 2011).
Where a name gives a salt, the structure may show the parent alone.

Experiments:
[1] = tested on: RH30 rhabdomyosarcoma xenograft; test: RH30 rhabdomyosarcoma xenograft model; type: in vivo; details: for tumor growth: LDM TP 1.0 mg/kg, PZ 150 mg/kg, TP + PZ both
SH-SY5Y xenograft = test: SH-SY5Y subcutaneous xenograft model; type: in vivo; details: for tumor microvessel density (CD31 pixel counts): compared with the control, 20 days treatment; for tumor growth delay / tumor weights at the end of the treatment: daily oral, 20 days, LDM TP 1.0 mg/kg, PZ 150 mg/kg, TP + PZ both
[2] = PKs of topotecan and pazopanib in nontumor-bearing animals; type: in vivo, mouse; details: for difference between plasma concentrations of single agent and combination treated animals: at any time point
tumor cell lines = test: In vitro cytotoxicity, Alamar blue cell viability, all tumor cell lines; type: cell-based; details: 72 hours treatment, all concentrations tested
RH30 = test: In vitro cytotoxicity, Alamar blue cell viability; type: cell-based; details: Rh30, 72 h, read-out: IC50, viability of RH30
[3] = tested on: KHOS osteosarcoma xenograft; test: KHOS osteosarcoma xenograft model; type: in vivo; details: for tumor growth / tumor weight at the end of the treatment / tumor microvessel density (vWF pixel counts): 28 days; for tumor microvessel density (vWF pixel counts): compared with the control
RD = test: In vitro cytotoxicity, Alamar blue cell viability; type: cell-based; details: Homo sapiens, 72 h, read-out: IC50, viability of RD
ovarian cancer model = details: cited from earlier work
KHOS = test: In vitro cytotoxicity, Alamar blue cell viability; type: cell-based; details: 72 h, read-out: IC50, viability of KHOS
BE(2)-c metastatic model = test: BE; type: in vivo, mouse; details: daily oral until death or endpoint
[4] = Pulse TP weekly oral 15 mg/kg topotecan
[5] = daily oral, LDM TP 1.0 mg/kg, TP + PZ 1.0 + 150 mg/kg

Cc1ccc(Nc2nccc(N(C)c3ccc4c(C)n(C)nc4c3)n2)cc1S(N)(=O)=O [pazopanib, 5-[[4-[(2,3-Dimethyl-2H-indazol-6-yl)methyl-amino]-2-pyrimidinyl]amino]-2-methylbenzolsulfonamide]
WBC level (bone marrow toxicity) ([1]; after 31 days treatment): reduced WBC level significantly | viable CEP levels in blood ([1]; after 31 days treatment): significantly lower viable CEP levels compared with the control | enhancement of survival compared with both control and LDM TP ([1]; daily oral, 56 days): 2 fold | tumor growth ([1]; daily oral, 56 days): delayed the tumor growth | tumor microvessel density (CD31 pixel counts) (SH-SY5Y xenograft): significant reduction in microvessel densities | tumor growth delay (SH-SY5Y xenograft): tumor growth delay in the order PZ< LDM TP< TP+PZ | tumor weights at the end of the treatment (SH-SY5Y xenograft): significant difference in tumor weights compared with the control | difference between plasma concentrations of single agent and combination treated animals [2]: no significant difference | Cmax ([2]; mouse, plasma, po, 150 mg/kg): 134 µg/mL | effect on viability of the tumor cell lines (tumor cell lines): did not affect the viabilities

CC[C@@]1(O)C(=O)OCc2c1cc1n(c2=O)Cc2cc3c(CN(C)C)c(O)ccc3nc2-1 [topotecan, (S)-10-[(dimethylamino)methyl]-4-ethyl-4,9-dihydroxy-1H-yrano [3′,4′:6,7] indolizino[1,2-b] quinoline-3,14 (4H,12H)-dione monohydrochloride]
IC50 (RH30): 7.4 ng/mL | tumor growth ([1]; daily oral, 56 days): ineffective in controlling the tumor growth | tumor growth [3, 4]: delayed the tumor growth | tumor weight at the end of the treatment [3, 4]: significantly lower tumor weight | tumor growth [3, 5]: delayed the tumor growth | tumor weight at the end of the treatment [3, 5]: significantly lower tumor weight | viable CEP levels in blood ([3]; after 28 days treatment): significant reduction in viable CEP levels compared with Pulse TP | tumor microvessel density (vWF pixel counts) ([3]; Pulse TP weekly 15 mg/kg): caused reduction in microvessel densities | tumor microvessel density (vWF pixel counts) ([3]; daily regimens): caused reduction in microvessel densities | IC50 (RD): 7.5 ng/mL | food intake (ovarian cancer model; 1.5 mg/kg daily, oral): decreased food intake | microvascular density compared with weekly maximum-tolerated dose regimen (7.5 and 15 mg/kg) (ovarian cancer model; daily oral metronomic 0.5, 1.0 and 1.5 mg/kg): greater reduction in microvascular density | tumor microvessel density (CD31 pixel counts) (SH-SY5Y xenograft): but not LDM TP caused significant reduction in microvessel densities | tumor growth delay (SH-SY5Y xenograft): tumor growth delay in the order PZ< LDM TP< TP+PZ | tumor weights at the end of the treatment (SH-SY5Y xenograft): significant tumor weight reduction compared with PZ | peak plasma concentration of topotecan ([2]; LDM TP group, single oral 1.0 mg/kg topotecan): 19.75 ng/mL | peak plasma concentration of topotecan ([2]; TP + PZ group, single oral 1.0 mg/kg topotecan + 150 mg/kg pazopanib): 33.05 ng/mL | difference between plasma concentrations of single agent and combination treated animals [2]: no significant difference | IC50 (KHOS): 4.9 ng/mL | survival (BE(2)-c metastatic model): higher than PZ-treated animals | effect on viability of the tumor cell lines (tumor cell lines): dose-dependent reduction in the viability
